# Measured values taken from patent publication US12037333B2, “Pyridopyrazine and pyridotriazine inhibitors of influenza virus replication” (priority 2018, dated 2024).
# Test system: Influenza type A (strain A/PR/8/34, ATCC VR-95)
# Assay: Influenza antiviral assay: inhibition of virus-induced cytopathic effects (CPE) in MDCK cells, XTT dye reduction
# Type: cell-based
# Details: strain A/PR/8/34, MDCK cells, CPE inhibition at 4 days
# [1] = Influenza A virus, H1N1 / PR/8, MDCK, 96 h
smiles,measurement,setting,value
"CC(CCN1CN(C23c4ccccc4CC2Cc2ccccc23)n2ccc(=O)c(O)c2C1=O)c1ccccc1 (stereo not shown) [Compound A32, 1-(9a,10-dihydroindeno[1,2-a]inden-4b(9H)-yl)-5-hydroxy-3-(3-phenylbutyl)-2,3-dihydro-1H-pyrido[2,1-f][1,2,4]triazine-4,6-dione]",EC50,[1],> 500 nM
CC(CCN1CN(C23c4ccccc4CC2Cc2ccccc23)n2ccc(=O)c(O)c2C1=O)c1ccccc1 (stereo not shown) [Compound A33],EC50,Influenza A (H1N1),375 to 500 nM
CCN1CN(C23c4cccc(F)c4CC2Cc2c(F)cccc23)n2ccc(=O)c(O)c2C1=O (stereo not shown) [Compound A34],EC50,[1],< 125 nM
"CN1CN(C23c4ccccc4CC2Cc2c3ccc(F)c2Cl)n2ccc(=O)c(O)c2C1=O (stereo not shown) [Compound A46, 1-(1-Chloro-2-fluoro-9a,10-dihydroindeno[1,2-a]inden-4b(9H)-yl)-5-hydroxy-3-methyl-2,3-dihydro-1H-pyrido[2,1-f][1,2,4]triazine-4,6-dione]",EC50,[1],< 125 nM
CCN1CN(C23c4ccccc4CC2Cc2c3ccc(F)c2Cl)n2ccc(=O)c(O)c2C1=O (stereo not shown) [Compound A47],EC50,[1],< 125 nM
"CCOC12Cc3ccccc3C1(N1CN(CC)C(=O)c3c(O)c(=O)ccn31)c1ccccc1C2 (stereo not shown) [Compound A48, 1-(9a-Ethoxy-9a,10-dihydroindeno[1,2-a]inden-4b(9H)-yl)-3-ethyl-5-hydroxy-2,3-dihydro-1H-pyrido[2,1-f][1,2,4]triazine-4,6-dione]",EC50,[1],< 125 nM
COCCN1CN(C23c4cccc(F)c4CC2Cc2c(F)cccc23)n2ccc(=O)c(O)c2C1=O (stereo not shown) [Compound A49],EC50,[1],< 125 nM
"CC(C)N1CN(C23c4ccccc4CC2(C)Cc2ccccc23)n2ccc(=O)c(O)c2C1=O (stereo not shown) [Compound A50, 5-hydroxy-3-isopropyl-1-(9a-methyl-9a,10-dihydroindeno[1,2-a]inden-4b(9H)-yl)-2,3-dihydro-1H-pyrido[2,1-f] [1,2,4] triazine-4,6-dione]",EC50,[1],< 125 nM
CCN1CN(C23c4cccc(F)c4CC2(C)Cc2c(F)cccc23)n2ccc(=O)c(O)c2C1=O (stereo not shown) [Compound A51],EC50,[1],< 125 nM
CCN1CN(C23c4ccccc4CC2Cc2ccc(F)cc23)n2ccc(=O)c(O)c2C1=O (stereo not shown) [Compound A52],EC50,[1],< 125 nM
CN1CN(C23c4ccccc4CC2Cc2ccc(F)cc23)n2ccc(=O)c(O)c2C1=O (stereo not shown) [Compound A53],EC50,[1],< 125 nM
CN1CN(C23c4cccc(F)c4CC2(C)Cc2c(F)cccc23)n2ccc(=O)c(O)c2C1=O (stereo not shown) [Compound A54],EC50,[1],< 125 nM
CCN1CN(C23c4ccccc4CC2Cc2c(Cl)cccc23)n2ccc(=O)c(O)c2C1=O (stereo not shown) [Compound A55],EC50,[1],< 125 nM
CCN1CN(C23c4ccccc4CC2(CC)Cc2c3ccc(F)c2F)n2ccc(=O)c(O)c2C1=O (stereo not shown) [Compound A56],EC50,[1],< 125 nM
CCOC12Cc3ccccc3C1(N1CN(C)C(=O)c3c(O)c(=O)ccn31)c1ccccc1C2 (stereo not shown) [Compound A57],EC50,[1],< 125 nM
O=C1c2c(O)c(=O)ccn2N(C23c4cccc(F)c4CC2Cc2c(F)cccc23)CN1CCF (stereo not shown) [Compound A58],EC50,[1],< 125 nM
CN1C(=O)c2c(O)c(=O)ccn2N(C23c4cccc(F)c4CC2Cc2c(F)cccc23)C1CO (stereo not shown) [Compound A59],EC50,[1],< 125 nM
CC1N(C)C(=O)c2c(O)c(=O)ccn2N1C12c3ccccc3CC1Cc1c(F)cccc12 (stereo not shown) [Compound A60],EC50,[1],< 125 nM
O=C1c2c(O)c(=O)ccn2N(C23c4ccccc4CC2Cc2c3ccc(F)c2F)CN1C1CC1 (stereo not shown) [Compound A61],EC50,[1],< 125 nM
COC12Cc3ccccc3C1(N1CN(C)C(=O)c3c(O)c(=O)ccn31)c1ccccc1C2 (stereo not shown) [Compound A62],EC50,[1],125 to 250 nM
CN1CN(C23c4ccccc4CC2(C(F)F)Cc2ccccc23)n2ccc(=O)c(O)c2C1=O (stereo not shown) [Compound A63],EC50,[1],125 to 250 nM
CC1N(C)C(=O)c2c(O)c(=O)ccn2N1C12c3ccccc3CC1Cc1c2ccc(F)c1F (stereo not shown) [Compound A64],EC50,[1],< 125 nM
O=C1c2c(O)c(=O)ccn2N(C23c4ccccc4CC2Cc2c(F)cccc23)CN1C1CC1 (stereo not shown) [Compound A65],EC50,[1],125 to 250 nM
CCN1CN(C23c4cccc(C)c4CC2Cc2c(F)cccc23)n2ccc(=O)c(O)c2C1=O (stereo not shown) [Compound A66],EC50,[1],125 to 250 nM
Cc1cccc2c1CC1Cc3c(F)cccc3C21N1CN(C)C(=O)c2c(O)c(=O)ccn21 (stereo not shown) [Compound A67],EC50,[1],< 125 nM
O=C1c2c(O)c(=O)ccn2N(C23c4ccccc4CC2Cc2c(F)cccc23)CN1CCF (stereo not shown) [Compound A68],EC50,[1],< 125 nM
COCCN1CN(C23c4ccccc4CC2Cc2c(F)cccc23)n2ccc(=O)c(O)c2C1=O (stereo not shown) [Compound A69],EC50,[1],< 125 nM
COCCN1CN(C23c4ccccc4CC2Cc2c3ccc(F)c2F)n2ccc(=O)c(O)c2C1=O (stereo not shown) [Compound A70],EC50,[1],< 125 nM
O=C1c2c(O)c(=O)ccn2N(C23c4cccc(F)c4CC2Cc2c(F)cccc23)CN1CC(F)F (stereo not shown) [Compound A71],EC50,[1],< 125 nM
O=C1c2c(O)c(=O)ccn2N(C23c4cccc(F)c4CC2Cc2c(F)cccc23)CN1CCCF (stereo not shown) [Compound A72],EC50,[1],< 125 nM
CC1N(C)C(=O)c2c(O)c(=O)ccn2N1C12c3cccc(F)c3CC1Cc1c(F)cccc12 (stereo not shown) [Compound A73],EC50,[1],< 125 nM
O=C1c2c(O)c(=O)ccn2N(C23c4ccccc4CC2Cc2c3ccc(F)c2F)CN1CCF (stereo not shown) [Compound A74],EC50,[1],125 to 250 nM
O=C1c2c(O)c(=O)ccn2N(C23c4ccccc4CC2Cc2c(F)cccc23)CN1CC1CCOCC1 (stereo not shown) [Compound A75],EC50,[1],< 125 nM
O=C1c2c(O)c(=O)ccn2N(C23c4cccc(F)c4CC2Cc2c(F)cccc23)CN1CC1CC1 (stereo not shown) [Compound A76],EC50,[1],< 125 nM
CCN1CN(C23c4ccccc4CC2Cc2c3ccc(F)c2C)n2ccc(=O)c(O)c2C1=O (stereo not shown) [Compound A77],EC50,[1],< 125 nM
Cc1c(F)ccc2c1CC1Cc3ccccc3C21N1CN(C)C(=O)c2c(O)c(=O)ccn21 (stereo not shown) [Compound A78],EC50,[1],< 125 nM
O=C1c2c(O)c(=O)ccn2N(C23c4ccccc4CC2Cc2c(F)cccc23)CN1CCCF (stereo not shown) [Compound A79],EC50,[1],< 125 nM
O=C1c2c(O)c(=O)ccn2N(C23c4ccccc4CC2Cc2c3ccc(F)c2F)CN1CCCF (stereo not shown) [Compound A80],EC50,[1],< 125 nM
O=C1c2c(O)c(=O)ccn2N(C23c4cccc(F)c4CC2Cc2c(F)cccc23)CN1CC1CCOCC1 (stereo not shown) [Compound A81],EC50,[1],125 to 250 nM
CCN1CN(C23c4ccccc4CC2Cc2c(C)cccc23)n2ccc(=O)c(O)c2C1=O (stereo not shown) [Compound A82],EC50,[1],< 125 nM
O=C1c2c(O)c(=O)ccn2N(C23c4ccccc4CC2Cc2c(F)cccc23)CN1CC(F)F (stereo not shown) [Compound A83],EC50,[1],< 125 nM
O=C1c2c(O)c(=O)ccn2N(C23c4ccccc4CC2Cc2c3ccc(F)c2F)CN1CC(F)F (stereo not shown) [Compound A84],EC50,[1],< 125 nM
Cc1ccc2c(c1F)CC1Cc3ccccc3C21N1CN(C)C(=O)c2c(O)c(=O)ccn21 (stereo not shown) [Compound A85],EC50,[1],125 to 250 nM
O=C1c2c(O)c(=O)ccn2N(C23c4cccc(F)c4CC2Cc2c(F)cccc23)CN1CCc1ccccc1 (stereo not shown) [Compound A86],EC50,[1],125 to 250 nM
O=C1c2c(O)c(=O)ccn2N(C23c4ccccc4CC2Cc2c(F)cccc23)CN1CCc1ccccc1 (stereo not shown) [Compound A87],EC50,[1],125 to 250 nM
CC(C)N1CN(C23c4cccc(F)c4CC2(C)Cc2c(F)cccc23)n2ccc(=O)c(O)c2C1=O (stereo not shown) [Compound A89],EC50,[1],125 to 250 nM
CN1CN(C23c4ccccc4CC2Cc2c3ccc(F)c2Cl)n2ccc(=O)c(O)c2C1=O (stereo not shown) [Compound A90],EC50,Influenza A (H1N1),125 to 250 nM
CC(CCN1CN(C23c4ccccc4CC2Cc2c3ccc(F)c2F)n2ccc(=O)c(O)c2C1=O)c1ccccc1 (stereo not shown) [Compound A91],EC50,[1],> 500 nM
"O=C1c2c(O)c(=O)ccn2N(C23c4ccccc4CC2Cc2c3ccc(F)c2F)CN1C1CCC1 (stereo not shown) [Compound A92, 3-Cyclobutyl-1-(1,2-difluoro-9a,10-dihydroindeno[1,2-a]inden-4b(9H)-yl)-5-hydroxy-2,3-dihydro-1H-pyrido[2,1-f][1,2,4]triazine-4,6-dione]",EC50,[1],250 to 375 nM
O=C1c2c(O)c(=O)ccn2N(C23c4ccccc4CC2Cc2c(Cl)cccc23)CN1C1CC1 (stereo not shown) [Compound A93],EC50,[1],125 to 250 nM
CC1N(C)C(=O)c2c(O)c(=O)ccn2N1C12c3ccccc3CC1Cc1c(Cl)cccc12 (stereo not shown) [Compound A94],EC50,[1],250 to 375 nM
CCN1C(=O)c2c(O)c(=O)ccn2N(C23c4ccccc4CC2Cc2c(Cl)cccc23)C1C (stereo not shown) [Compound A95],EC50,[1],125 to 250 nM
CN1CN(C23c4cc(F)ccc4CC2Cc2c(Cl)cccc23)n2ccc(=O)c(O)c2C1=O (stereo not shown) [Compound A96],EC50,[1],< 125 nM
CCN1CN(C23c4ccccc4CC2Cc2c3ccc(C)c2F)n2ccc(=O)c(O)c2C1=O (stereo not shown) [Compound A98],EC50,[1],250 to 375 nM
O=C1c2c(O)c(=O)ccn2N(C23c4ccccc4CC2Cc2c3ccc(F)c2F)CN1CC1CCCCC1 (stereo not shown) [Compound A99],EC50,[1],> 500 nM
O=C1c2c(O)c(=O)ccn2N(C23c4ccccc4CC2Cc2c3ccc(F)c2F)CN1CC1CCCC1 (stereo not shown) [Compound A100],EC50,[1],> 500 nM
COCCN1CN(C23c4ccccc4CC2Cc2c(Cl)cccc23)n2ccc(=O)c(O)c2C1=O (stereo not shown) [Compound A101],EC50,[1],125 to 250 nM
O=C1c2c(O)c(=O)ccn2N(C23c4ccccc4CC2Cc2c(Cl)cccc23)CN1CCCF (stereo not shown) [Compound A102],EC50,[1],125 to 250 nM
O=C1c2c(O)c(=O)ccn2N(C23c4ccccc4CC2Cc2c(Cl)cccc23)CN1C1CCC1 (stereo not shown) [Compound A103],EC50,[1],250 to 375 nM
O=C1c2c(O)c(=O)ccn2N(C23c4ccccc4CC2Cc2c(Cl)cccc23)CN1CC1CCCC1 (stereo not shown) [Compound A104],EC50,[1],> 500 nM
O=C1c2c(O)c(=O)ccn2N(C23c4ccccc4CC2Cc2c(Cl)cccc23)CN1CC(F)F (stereo not shown) [Compound A105],EC50,[1],< 125 nM
"CN1C(=O)c2c(O)c(=O)ccn2N(C23C(=Cc4c(F)cccc42)Cc2c(F)cccc23)C1CN (stereo not shown) [Compound A106, 2-(aminomethyl)-1-(1,8-difluoroindeno[1,2-a]inden-4b(9H)-yl)-5-hydroxy-3-methyl-2,3-dihydro-1H-pyrido[2,1-f][1,2,4]triazine-4,6-dione]",EC50,[1],125 to 250 nM
"CN1C(=O)c2c(O)c(=O)ccn2N(C23c4cccc(F)c4CC2Cc2c(F)cccc23)C1CN (stereo not shown) [Compound A107, 2-(aminomethyl)-1-(1,8-difluoro-9a,10-dihydroindeno[1,2-a]inden-4b(9H)-yl)-5-hydroxy-3-methyl-2,3-dihydro-1H-pyrido[2,1-f][1,2,4]triazine-4,6-dione]",EC50,[1],125 to 250 nM
O=C1c2c(O)c(=O)ccn2N(C23c4ccccc4CC2Cc2c(Cl)cccc23)CN1CC1CC1 (stereo not shown) [Compound A108],EC50,[1],250 to 375 nM
